Data published in patent US5863913A, “Aromatic compound and pharmaceutical composition” (Kureha Chemical Industry Co., Ltd., priority 1996, dated 1999).

Experiments:
ICR female mice = experiment: Acute toxicity, single oral dose in mice; conditions: mouse, in vivo
Method: The aromatic compounds of the formula (I) according to the present invention were orally administered to mice at the dose of 500 mg/kg, but no fatalities were observed over a period of one week.
Five-week-old ICR female mice (5 mice per group) were bred for acclimation for a week. Then, the compounds of the present invention were dissolved in water, and orally administered to the mice in a single dosage (500 mg/kg).

[1] = molecular target: T1, angiotensin II receptor subtype 1 (AT1) (Oryctolagus cuniculus, UniProt P34976); experiment: Binding to receptors: angiotensin II receptor subtype 1 (AT1); parameters: species or system rabbits (adrenal glands); conditions: rabbit adrenal glands, tracer 3H-angiotensin II
T1 construct: receptor : from adrenal glands in rabbits; from tissue; host or cells: rabbit adrenal glands
T1 sequence (P34976 1-359): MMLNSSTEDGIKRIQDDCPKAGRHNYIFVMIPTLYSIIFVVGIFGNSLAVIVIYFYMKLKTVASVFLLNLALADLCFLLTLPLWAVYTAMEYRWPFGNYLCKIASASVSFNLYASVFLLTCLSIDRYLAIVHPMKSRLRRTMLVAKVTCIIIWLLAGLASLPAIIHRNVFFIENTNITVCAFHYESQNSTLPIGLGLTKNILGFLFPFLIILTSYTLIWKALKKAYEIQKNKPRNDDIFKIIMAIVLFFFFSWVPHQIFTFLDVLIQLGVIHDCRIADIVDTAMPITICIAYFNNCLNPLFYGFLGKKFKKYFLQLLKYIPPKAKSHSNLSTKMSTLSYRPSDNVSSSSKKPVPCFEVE
Method: (§1) In this Example, the affinity to the angiotensin II receptor subtype 1 or subtype 2 was evaluated by a binding assay in accordance with the method described in Biochem. Pharmacol., 33, 4057-4062 (1984).
(§2) Specifically, the measurement of the total binding in the presence of each drug was performed as follows:
(§3) A mixture (final volume=0.25 ml) of a drug in a given concentration (the drug was dissolved in DMSO, and diluted to a double volume with a buffer attached to a drug discovery system to prepare a sample for the assay; 0.025 ml), a tracer (0.025 ml), and receptors (0.2 ml) was incubated [in the case of the angiotensin II receptor subtype 1 (AT1), at room temperature for 3 hours, and in the case of the subtype 2 (AT2), at 37° C. for 1 hour]. Then, the reaction mixture was filtered with suction (GF/C filter was used in AT1, and GF/B filter was used in AT2). The filter papers after filtration with suction (the tracer bound to the receptors) were counted by a γ-well counter (ARC-500, Aloka). The non-specific bindings were measured by repeating the above method, except that a large excess amount of a displacer was added. The specific binding of the drug in the given concentration was calculated by subtracting the non-specific binding from the total binding, respectively.
receptor : from adrenal glands in rabbits
tracer : ^3 Hangiotensin II

[2] = molecular target: T2, angiotensin II receptor subtype 2 (AT2) (Bos taurus, UniProt G5E6F7); experiment: Binding to receptors: angiotensin II receptor subtype 2 (AT2); conditions: bovine cerebellar cortex, tracer 125I-Tyr4-angiotensin II
T2 construct: receptor : from cerebellar cortex in bovine; from tissue; host or cells: bovine cerebellar cortex
T2 sequence (G5E6F7 1-362): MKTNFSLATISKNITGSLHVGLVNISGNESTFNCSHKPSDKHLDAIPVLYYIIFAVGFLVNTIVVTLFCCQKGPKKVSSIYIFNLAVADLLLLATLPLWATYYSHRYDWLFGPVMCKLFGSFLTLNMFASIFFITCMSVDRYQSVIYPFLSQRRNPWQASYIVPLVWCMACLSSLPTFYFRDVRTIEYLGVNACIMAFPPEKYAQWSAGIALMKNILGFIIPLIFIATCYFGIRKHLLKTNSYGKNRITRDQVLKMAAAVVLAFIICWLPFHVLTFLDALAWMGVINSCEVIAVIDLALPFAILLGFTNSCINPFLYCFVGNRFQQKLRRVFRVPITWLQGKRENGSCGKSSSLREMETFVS
Method: as §1, §2, §3
In AT1 and AT2, the percentages found to inhibit the bindings of radioactive ligands (tracer) to receptors by the drugs to be tested (IC50 value of concentration to show 50% inhibition, or binding inhibition % in 100 μM) were measured, using the drugs to be tested and control drugs in the given concentration.
receptor : from cerebellar cortex in bovine
tracer : ^125 ITyr^4angiotensin II
control drug : angiotensin II (human)
(displacer) : angiotensin II (human)

[3] = tested on: kidney disease model rats; experiment: Action to lower blood pressure in kidney disease model rats (tail cuff); format: in vivo, Sprague-Dawley female rats; conditions: for Blood Pressure: systolic, average of 8 rats, 20 mg/kg with drinking water, two days after administration, control 210
Method: (§4) The compounds of the present invention and the reference substance were administered with drinking water to kidney disease model rats, and the action of lowering the blood pressure was observed. The kidney disease model rats were prepared by a ligature of branches of renal artery in accordance with a conventional method. Namely, the left hilum renalis of Sprague-Dawley female rats was exposed under anesthesia, and one of four secondary branches of the renal artery was left unligated, while the remaining three branches were ligated, respectively. After a week, the hilum renalis (artery, vein, and ureter) of the right kidney were further ligated to thereby prepare rats whose renal function was lowered to approximately 1/8 of the normal function. Each group consisted of eight rats. The drugs to be tested (20 mg/kg) were administered to each administering group, and only water was administered to a control group. Two days after the administration, the systolic blood pressure was measured by the tail cuff method using a blood pressure measuring apparatus (UR5000; Ueda).

[4] = tested on: kidney disease model rats; experiment: Renal function indicatory value in kidney disease model rats; format: in vivo, Sprague-Dawley female rats; conditions: 20 mg/kg/day with drinking water, six weeks; for Creatinine clearance: 24 hours urine, control 0.22; for Creatinine / Blood urea nitrogen: serum; for Creatinine: control 2.0; for Blood urea nitrogen: control 100
Method: as §4, with “The” for “The compounds of the present invention and the reference substance were administered with drinking water to kidney disease model rats, and the action of lowering the blood pressure was observed. The”
The rats in each group were allowed to freely take up food. […] To the rats in the control group, only water was administered every day. After six weeks, 0.2 ml of blood was collected from the carotid artery of the rats under anesthesia, and centrifuged to obtain serum. Using 25 μl of the serum, the serum creatinine (Scr) was measured by a creatinine analytical instrument (Beckman). Using 10 μl of the serum, the blood urea nitrogen (BUN) was measured by a BUN analytical instrument (Beckman). The creatinine clearance was evaluated as follows:
After the serum creatinine measurement, rats were placed in urinary metabolic cages for 24 hours to collect urine. A urinary creatine concentration (Ucr) was measured by a creatinine analytical instrument, and a total volume of urination (Uvol) was also measured. The creatinine clearance (CCr) was calculated by the following formula: [formula]

[5] = tested on: kidney disease model rats; experiment: Survival time of kidney diseased animals; format: in vivo, Sprague-Dawley female rats; conditions: 20 mg/kg/day with drinking water, observation period eight weeks (upper limit); control 5.0
Method: as §4
The kidney disease model rats were prepared as in Example 54. Twenty-two groups (8 rats per group) were prepared in a manner such that there was no major difference between the groups in the serum creatinine value and the blood urea nitrogen value indicating renal function. The rats in each group were allowed to freely take up food. […] To the rats in the control group, only water was administered every day. If kidney diseases are aggravated, the rat will die of uremia. Thus, the survival time was observed as a comprehensive indication of the improvement of the effect on the kidney diseases. The observation period was eight weeks. Thus if all rats survived, the average survival time is eight weeks, and is an upper limit.

[6] = Oral absorption (amount of compound in rat serum by HPLC, area under curve); format: in vivo, Sprague-Dawley female rats; conditions: single dosage 160 mg/kg in water, 0.5 to 24 hours, average of 3 rats
Method: Twelve-week-old Sprague-Dawley female rats (3 rats per group) were bred for acclimation for a week. Then, the compounds of the present invention and a reference substrate were dissolved in water, and orally administered to the rats in a single dosage (160 mg/kg). After 0.5 hour, 1 hour, 2 hours, 4 hours, 6 hours, 8 hours, and 24 hours, the amounts of each compound (ng) per 1 ml of serum were measured using HPLC. Curves were obtained from the relation between an elapsed time after administration and the amount of the compound in serum at each elapsed time, respectively, and an average of the areas under the curves was calculated.
As a reference substance, Compound No. 184 disclosed in Japanese Unexamined Patent Publication (Kokai) No. 8-48651 was used. Compound No. 184 corresponds to the compound of the formula (I) wherein R^1 =nBu, A=N, Z=C, R^2 =CO, R^3 =NC4 H8 O, R^4 =H, R^5 =Me, and R^6 =Me.

AUC at 24 h [6] | SMILES | Number of deaths/number of survivals (ICR female mice) | inhibition at 100 µM [1] | inhibition at 100 µM [2] | Blood Pressure [3] | Creatinine clearance [4] | Creatinine [4] | Blood urea nitrogen [4] | Average survival time [5] | action of lowering the blood pressure ([3]; result in words, in comparison with the control group)
 | CCCCC(=O)N(Cc1ccc(C(=O)OCC(N)C(=O)OCC)cc1)c1cc(C(=O)N2CCOCC2)ccc1N(C)C (stereo not shown) [Compound No. 4, 3-N-[[[[4-(2'-amino-2'-ethoxycarbonyl)ethoxycarbonyl]phenyl]methyl]valeramido]-4-dimethyl aminobenzoic acid morpholide] | 0/5 | 11% | 0% | 204 mmHg | 0.37 mL/min | 1.4 mg/dL | 72 mg/dL | 6.9 weeks | 
 | CCCCC(=O)N(Cc1ccc(C(=O)O)cc1)c1cc(C(=O)N2CCN(C)CC2)ccc1N(C)C [Compound No. 10, 3-[[(4-carboxyohenyl)methyl]valeramido]-4-dimethylaminobenzoic acid 4'-methylpiperazide] | 0/5 | 13% | 0% | 206 mmHg | 0.32 mL/min | 1.6 mg/dL | 81 mg/dL | 6.9 weeks | 
 | CCCCc1nc(Cl)c(CO)n1Cc1ccc(-c2ccccc2-c2nn[nH]n2)cc1 [DuP753, reference compound] |  |  |  | 130 mmHg | 0.32 mL/min | 1.6 mg/dL | 80 mg/dL | 6.9 weeks | clearly exhibited the action of lowering the blood pressure
 | CCCCC(=O)N(Cc1ccc(C(=O)OCC)cc1)c1cc(C(=O)N2CCN(C)CC2)ccc1C(C)C [Compound No. 16, 3-[[(4-ethoxycarbonylphenyl)methyl]valeramido]-4-i-propylbenzoic acid 4'-methylpiperazide] | 0/5 | 0% | 0% | 202 mmHg | 0.33 mL/min | 1.5 mg/dL | 78 mg/dL | 6.9 weeks | 
 | CCCCC(=O)N(Cc1ccc(C(=O)O)cc1)c1cc(C(=O)N(CC)CCN(CC)CC)ccc1C(C)C [Compound No. 17] | 0/5 | 4% | 23% | 201 mmHg | 0.33 mL/min | 1.5 mg/dL | 78 mg/dL | 6.9 weeks | 
622 ng·h/mL | CCCCC(=O)N(Cc1ccc(C(=O)O)cc1)c1cc(C(=O)N2CCOCC2)ccc1N(C)C [reference substance, 3-N-[[(4-carboxyphenyl)methyl]valeramido]-4-dimethylaminobenzoic acid morpholide, reference compound] |  |  |  |  |  |  |  |  | 
 | CCCCCCCC(=O)N(Cc1ccc(C(=O)O)cc1)c1cc(C(=O)N2CCN(C)CC2)ccc1N(C)C [Compound No. 14, 3-[[(4-carboxyphenyl)methyl]n-octanamido]-4-dimethylaminobenzoic acid 4'-methylpiperazide] | 0/5 | 0% | 0% | 205 mmHg | 0.27 mL/min | 1.7 mg/dL | 86 mg/dL | 6.3 weeks | 
 | CCCCC(=O)N(Cc1ccc(C(=O)OC2CNC(C(=O)OCC)C2)cc1)c1cc(C(=O)N2CCOCC2)ccc1N(C)C (stereo not shown) [Compound No. 5, 4-dimethylamino-3-N-[[[[4-(2'-ethoxycarbonylpyrrolidin-4'-yloxy)carbonyl]phenyl]methyl]valeramido]benzoic acid morpholide] | 0/5 | 11% | 0% | 200 mmHg | 0.30 mL/min | 1.6 mg/dL | 82 mg/dL | 6.9 weeks | 
